One compound from patent publication US11478466B2, “Small molecule promoting osteoblast differentiation” (Cornell University, priority 2019, dated 2022) can be followed below.

One assay has as its system p38 MAPK. Briefly: Western blotting of p38 MAPK phosphorylation in C2C12 cells. It counts as cell-based, mouse. The protocol:
Whole cell extracts were collected from C2C12 or BRITER cells in complete lysis buffer (20 mM Tris, 150 mM NaCl, 50 mM NaF, 1% NP40 substitute, HALT protease inhibitor cocktail (ThermoScientific). Proteins were resolved by electrophoresis on pre-cast 10% NuPage Bis-Tris gels (Invitrogen) and transferred to PVDF membranes (Bio-Rad). Membranes were blocked in 5% BSA-TBS-0.5% Tween-20 for 15 minutes, then incubated at 4° overnight with primary antibodies. Antibodies used were: rabbit anti-phospho-p38 MAPK (cat. no. 9211), anti-p38 MAPK XP (8690), anti-phospho-SMAD1/5 (9516), anti-SMAD1 XP (6944), anti-phospho-SMAD2/3 (8828), anti-SMAD2/3 XP (8685), anti-phospho-JNK (4668), anti-SAPK/JNK (9252), anti-phospho-Akt XP (4060), pan anti-Akt (4691), anti-phospho ERK p42/p44 (4377), anti-ERK p42/p44 (9102), anti-phospho-MKK3/6 (12280), anti-MKK3 (8535), anti-phospho-TAK1 (4531), anti-TAK1 (5206), anti-HA (3274), and anti-FLAG (14793); all from Cell Signaling); and mouse anti-p38α (cat. no. 33-1300), anti-p38β (33-8700; both ThermoFisher) and anti-β-actin (Sigma A1978). Proteins were visualized with HRP-conjugated secondary antibodies (Bio-Rad) with WestPico (ThermoFisher) or Immobilon (Millipore) chemiluminescence reagents. Images were obtained and analyzed for relative densitometric relationships on a LI-COR C-DiGit scanner using Image Studio software.
(Immunoblotting shows a protein as a band on a membrane.)

The test system of assay [1] is primary human mesenchymal stem cells (hMSCs). Description: In vitro mineralization assay (alizarin red) in hMSCs. The format is cell-based. To be noted: hMSCs in osteogenic medium, 10 μM from day 12 to 18, normalized to cell number. The protocol: To extend these observations to human osteoblast maturation, a quantitative assay was used to analyze mineralization in differentiating primary human mesenchymal stem cells (hMSCs). Bone marrow-derived hMSCs were cultured in unbiased growth medium for at least two passages and then cultured in osteogenic medium for 12 to 21 days and stained with alizarin red to identify a time window in which spontaneous mineralization first occurred (FIG. 4A). Subsequently, hMSCs in osteogenic medium were treated continuously with DIPQUO from day 12 to 18, stained and compared with equivalent DMSO treated controls, and then normalized to total cell numbers (FIG. 4B). DIPQUO-treated samples incorporated alizarin red in a molar ratio approximately 5 times greater than DMSO-treated samples (FIGS. 4C and 4D).
For mineralization studies, primary bone marrow-derived hMSCs (Lonza) were maintained and passaged in complete hMSC growth medium (Lonza). Cells were then switched to osteogenic medium (Lonza PT-3002) for 12 days, after which they were treated with DMSO or 10 μM DIPQUO for an additional 6 days. […] Staining was quantified using the Osteogenesis Quantitation kit (Millipore ECM815) following manufacturer's instructions. […] Absorbance was measured at 405 nm using an EMax Plus microplate reader and SoftMax Pro 7.0 software. […]

Another assay has as its system p38-β. Description: Isoform-specific immunoprecipitation, p38-β activity in C2C12 cells. The conditions noted are these: C2C12, 10 μM DIPQUO. The format is cell-based, mouse. The text has this: There are four separate p38 isoforms: α, β, γ, and δ. The respective roles of the α and β isoforms in bone differentiation have been dissected to the extent that p38-β is known to be involved specifically in skeletogenesis (Greenblatt et al., 2010), while p38-α has roles that are both wide-ranging and highly specific, for instance in dentition (Greenblatt et al., 2015). Accordingly, we used small interfering RNA-mediated knockdown to probe the specificity of DIPQUO to block the activity of one or the other isoform (FIG. 6E). […] To confirm the biological significance of this observation, the α and β isoforms were immunoprecipitated from C2C12 cells and analyzed for relative activity levels.

On to `Cc1cc(C)c2[nH]c(=O)c(-c3[nH]cnc3-c3ccccc3)cc2c1` [RU-0226606, 6,8-dimethyl-3-(4-phenyl-1H-imidazol-5-yl)quinolin-2(1H)-one], for which, in the assay with p38 MAPK (C2C12, western blotting), the “p38 MAPK signaling (phosphorylation)” value was “selectively activated p38 MAPK signaling”. In addition, the “concentration at which effects on p38 MAPK and JNK pathway activation overlap” value with p38 MAPK (dose-response, western blotting, 6-8 hours of treatment) lay in the range of 5 to 10 µM. Moreover, in assay [1], the “alizarin red incorporation, molar ratio relative to DMSO-treated samples” value is listed as “approximately 5 times”. Besides, the “p38-β isoform activity after immunoprecipitation” value in the assay on p38-β is reported as “significantly activated”.
